PMC9856672, “SGC-CAMKK2-1: A Chemical Probe for CAMKK2” (Cells, 2023)

Assays:
ACVRL1 = target: T1, ACVRL1 (Homo sapiens, UniProt P37023); test: KINOMEscan 1 μM, ACVRL1; type: binding; conditions: 1000 nM; Entrez ACVRL1; read-out: Percent Control
T1 construct: purchased Eurofins DiscoverX KINOMEscan
Source text: (§1) Supplement cells-12-00287-s001.zip/File S2. KinomeScan data for the CAMKK2 probe and negative control.xlsx, sheet "SGC-CAMKK2-1" | column: Percent Control

MAP3K15 = target: T2, MAP3K15 (Homo sapiens, UniProt Q6ZN16); test: KINOMEscan 1 μM, MAP3K15; type: binding; conditions: 1000 nM; Entrez MAP3K15; read-out: Percent Control
T2 construct: purchased Eurofins DiscoverX KINOMEscan
Source text: as §1

MST4 = target: T3, MST4 (Homo sapiens, UniProt Q9P289); test: KINOMEscan 1 μM, MST4; type: binding; conditions: 1000 nM; Entrez MST4; read-out: Percent Control
T3 construct: purchased Eurofins DiscoverX KINOMEscan
Source text: as §1

PFTK1 = target: T4, PFTK1 (Homo sapiens, UniProt O94921); test: DiscoverX KINOMEscan binding assay at 1 μM, PFTK1; conditions: PFTK1 (CDK14); Compound Concentration 1000 nM; read-out: Percent Control
T4 construct: purchased Eurofins DiscoverX KINOMEscan
Source text: as §1

ERK2 = target: T5, ERK2 (Homo sapiens, UniProt P28482); test: KINOMEscan 1 μM, ERK2; type: binding; conditions: 1000 nM; Entrez MAPK1; read-out: Percent Control
T5 construct: purchased Eurofins DiscoverX KINOMEscan
Source text: as §1

MET(Y1235D) = target: T6, MET(Y1235D) (Homo sapiens, UniProt P08581, Y1235D); test: KINOMEscan 1 μM, MET(Y1235D); type: binding; conditions: 1000 nM; Entrez MET; read-out: Percent Control
T6 construct: purchased Eurofins DiscoverX KINOMEscan
Source text: as §1

CDK4-cyclinD3 = target: T7, CDK4-cyclinD3 (Homo sapiens, UniProt P11802); test: KINOMEscan 1 μM, CDK4-cyclinD3; type: binding; conditions: 1000 nM; Entrez CDK4; read-out: Percent Control
T7 construct: purchased Eurofins DiscoverX KINOMEscan
T7 sequence (P11802 whole entry): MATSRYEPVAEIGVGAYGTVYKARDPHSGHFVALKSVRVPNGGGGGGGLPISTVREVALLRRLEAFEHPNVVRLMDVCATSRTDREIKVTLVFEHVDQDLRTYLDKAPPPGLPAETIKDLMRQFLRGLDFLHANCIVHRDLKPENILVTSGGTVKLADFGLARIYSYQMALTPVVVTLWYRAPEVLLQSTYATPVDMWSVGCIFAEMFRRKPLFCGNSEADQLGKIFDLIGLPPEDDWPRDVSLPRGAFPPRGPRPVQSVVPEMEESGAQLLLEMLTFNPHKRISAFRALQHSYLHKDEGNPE
T7 sequence (P30281 whole entry partner): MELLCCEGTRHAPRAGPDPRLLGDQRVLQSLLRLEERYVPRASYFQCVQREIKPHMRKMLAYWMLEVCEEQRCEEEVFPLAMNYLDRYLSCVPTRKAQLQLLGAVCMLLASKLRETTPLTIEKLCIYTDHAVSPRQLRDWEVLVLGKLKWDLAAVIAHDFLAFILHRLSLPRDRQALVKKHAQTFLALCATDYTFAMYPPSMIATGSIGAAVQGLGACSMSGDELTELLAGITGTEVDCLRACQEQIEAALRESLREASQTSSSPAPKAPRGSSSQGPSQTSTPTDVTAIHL
Source text: as §1

CLK4 = target: T8, CLK4 (Homo sapiens, UniProt Q9HAZ1); test: KINOMEscan 1 μM, CLK4; type: binding; conditions: 1000 nM; Entrez CLK4; read-out: Percent Control
T8 construct: purchased Eurofins DiscoverX KINOMEscan
Source text: as §1

TLK2 = target: T9, TLK2 (Homo sapiens, UniProt Q86UE8); test: DiscoverX KINOMEscan binding assay at 1 μM, TLK2; conditions: Compound Concentration 1000 nM, read-out: Percent Control
T9 construct: purchased Eurofins DiscoverX KINOMEscan
T9 sequence (Q86UE8 whole entry): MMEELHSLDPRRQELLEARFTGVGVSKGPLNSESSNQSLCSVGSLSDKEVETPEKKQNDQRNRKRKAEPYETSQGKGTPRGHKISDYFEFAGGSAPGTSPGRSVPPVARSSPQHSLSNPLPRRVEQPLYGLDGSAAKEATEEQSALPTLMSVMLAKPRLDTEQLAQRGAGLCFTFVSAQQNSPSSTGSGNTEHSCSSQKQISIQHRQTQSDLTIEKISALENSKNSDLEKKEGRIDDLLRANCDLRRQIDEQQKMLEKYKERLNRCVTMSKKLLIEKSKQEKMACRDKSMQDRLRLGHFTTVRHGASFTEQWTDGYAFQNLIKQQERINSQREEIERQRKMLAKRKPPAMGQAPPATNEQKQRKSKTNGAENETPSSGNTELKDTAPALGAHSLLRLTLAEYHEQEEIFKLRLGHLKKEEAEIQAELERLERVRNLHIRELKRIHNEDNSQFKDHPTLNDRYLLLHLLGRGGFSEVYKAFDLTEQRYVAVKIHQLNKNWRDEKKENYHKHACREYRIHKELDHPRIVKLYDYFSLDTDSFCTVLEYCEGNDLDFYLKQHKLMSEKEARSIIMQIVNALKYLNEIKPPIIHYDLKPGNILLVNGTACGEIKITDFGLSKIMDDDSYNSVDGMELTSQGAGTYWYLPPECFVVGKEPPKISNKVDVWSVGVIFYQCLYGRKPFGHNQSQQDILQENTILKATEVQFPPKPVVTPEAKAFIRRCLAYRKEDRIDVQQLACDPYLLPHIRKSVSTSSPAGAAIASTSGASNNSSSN
Source text: as §1

CAMK2A = target: T10, CAMK2A (Homo sapiens, UniProt Q9UQM7); test: KINOMEscan 1 μM, CAMK2A; type: binding; conditions: 1000 nM; Entrez CAMK2A; read-out: Percent Control
T10 construct: purchased Eurofins DiscoverX KINOMEscan
Source text: as §1

PHKG2 = target: T11, PHKG2 (Homo sapiens, UniProt P15735); test: DiscoverX KINOMEscan binding assay at 1 μM, PHKG2; conditions: Compound Concentration 1000 nM, read-out: Percent Control
T11 construct: purchased Eurofins DiscoverX KINOMEscan
Source text: as §1

IKK-beta = target: T12, IKK-beta (Homo sapiens, UniProt O14920); test: KINOMEscan 1 μM, IKK-beta; type: binding; conditions: 1000 nM; Entrez IKBKB; read-out: Percent Control
T12 construct: purchased Eurofins DiscoverX KINOMEscan
T12 sequence (O14920 whole entry): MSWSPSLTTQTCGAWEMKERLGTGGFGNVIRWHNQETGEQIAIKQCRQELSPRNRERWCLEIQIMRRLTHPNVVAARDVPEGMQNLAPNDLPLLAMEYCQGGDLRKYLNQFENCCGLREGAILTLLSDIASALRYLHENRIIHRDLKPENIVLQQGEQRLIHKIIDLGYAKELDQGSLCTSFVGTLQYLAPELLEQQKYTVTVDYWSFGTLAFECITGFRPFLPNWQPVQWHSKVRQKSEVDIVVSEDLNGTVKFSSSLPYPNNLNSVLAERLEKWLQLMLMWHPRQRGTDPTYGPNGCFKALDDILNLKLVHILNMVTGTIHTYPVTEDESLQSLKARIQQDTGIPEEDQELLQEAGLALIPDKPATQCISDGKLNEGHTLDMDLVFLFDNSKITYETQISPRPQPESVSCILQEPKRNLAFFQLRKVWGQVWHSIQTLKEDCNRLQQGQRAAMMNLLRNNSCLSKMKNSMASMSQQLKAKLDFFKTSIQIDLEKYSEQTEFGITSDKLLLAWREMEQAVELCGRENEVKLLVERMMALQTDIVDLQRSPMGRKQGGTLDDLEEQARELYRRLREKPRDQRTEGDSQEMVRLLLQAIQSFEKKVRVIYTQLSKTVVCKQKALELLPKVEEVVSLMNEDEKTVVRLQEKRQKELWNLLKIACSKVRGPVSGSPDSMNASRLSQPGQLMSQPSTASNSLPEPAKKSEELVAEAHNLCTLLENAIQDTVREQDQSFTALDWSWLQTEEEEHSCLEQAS
Source text: as §1

PLK3 = target: T13, PLK3 (Homo sapiens, UniProt Q9H4B4); test: KINOMEscan at 1 μM, PLK3; type: binding; conditions: 1000 nM, read-out: Percent Control
T13 construct: purchased Eurofins DiscoverX KINOMEscan
Source text: (§2) Supplement cells-12-00287-s001.zip/File S2. KinomeScan data for the CAMKK2 probe and negative control.xlsx, sheet "SGC-CAMKK2-1N" | column: Percent Control

PRKD1 = target: T14, PRKD1 (Homo sapiens, UniProt Q15139); test: KINOMEscan binding assay at 1 μM, PRKD1; conditions: Compound Concentration 1000 nM; read-out: Percent Control
T14 construct: purchased Eurofins DiscoverX KINOMEscan
Source text: as §2

NEK7 = target: T15, NEK7 (Homo sapiens, UniProt Q8TDX7); test: KINOMEscan at 1 μM, NEK7; type: binding; conditions: 1000 nM, read-out: Percent Control
T15 construct: purchased Eurofins DiscoverX KINOMEscan
Source text: as §2

PRKR = target: T16, PRKR (Homo sapiens, UniProt P19525); test: KINOMEscan at 1 μM, PRKR; type: binding; conditions: 1000 nM, read-out: Percent Control
T16 construct: purchased Eurofins DiscoverX KINOMEscan
Source text: as §2

BRSK1 = target: T17, BRSK1 (Homo sapiens, UniProt Q8TDC3); test: KINOMEscan at 1 μM, BRSK1; type: binding; conditions: 1000 nM, read-out: Percent Control
T17 construct: purchased Eurofins DiscoverX KINOMEscan
Source text: as §2

CIT = target: T18, CIT (Homo sapiens, UniProt O14578); test: KINOMEscan at 1 μM, CIT; type: binding; conditions: 1000 nM, read-out: Percent Control
T18 construct: purchased Eurofins DiscoverX KINOMEscan
Source text: as §2

PIK3CA(Q546K) = target: T19, PIK3CA(Q546K) (Homo sapiens, UniProt P42336, Q546K); test: KINOMEscan at 1 μM, PIK3CA(Q546K); type: binding; conditions: 1000 nM, read-out: Percent Control
T19 construct: purchased Eurofins DiscoverX KINOMEscan
T19 sequence (P42336 whole entry Q546K): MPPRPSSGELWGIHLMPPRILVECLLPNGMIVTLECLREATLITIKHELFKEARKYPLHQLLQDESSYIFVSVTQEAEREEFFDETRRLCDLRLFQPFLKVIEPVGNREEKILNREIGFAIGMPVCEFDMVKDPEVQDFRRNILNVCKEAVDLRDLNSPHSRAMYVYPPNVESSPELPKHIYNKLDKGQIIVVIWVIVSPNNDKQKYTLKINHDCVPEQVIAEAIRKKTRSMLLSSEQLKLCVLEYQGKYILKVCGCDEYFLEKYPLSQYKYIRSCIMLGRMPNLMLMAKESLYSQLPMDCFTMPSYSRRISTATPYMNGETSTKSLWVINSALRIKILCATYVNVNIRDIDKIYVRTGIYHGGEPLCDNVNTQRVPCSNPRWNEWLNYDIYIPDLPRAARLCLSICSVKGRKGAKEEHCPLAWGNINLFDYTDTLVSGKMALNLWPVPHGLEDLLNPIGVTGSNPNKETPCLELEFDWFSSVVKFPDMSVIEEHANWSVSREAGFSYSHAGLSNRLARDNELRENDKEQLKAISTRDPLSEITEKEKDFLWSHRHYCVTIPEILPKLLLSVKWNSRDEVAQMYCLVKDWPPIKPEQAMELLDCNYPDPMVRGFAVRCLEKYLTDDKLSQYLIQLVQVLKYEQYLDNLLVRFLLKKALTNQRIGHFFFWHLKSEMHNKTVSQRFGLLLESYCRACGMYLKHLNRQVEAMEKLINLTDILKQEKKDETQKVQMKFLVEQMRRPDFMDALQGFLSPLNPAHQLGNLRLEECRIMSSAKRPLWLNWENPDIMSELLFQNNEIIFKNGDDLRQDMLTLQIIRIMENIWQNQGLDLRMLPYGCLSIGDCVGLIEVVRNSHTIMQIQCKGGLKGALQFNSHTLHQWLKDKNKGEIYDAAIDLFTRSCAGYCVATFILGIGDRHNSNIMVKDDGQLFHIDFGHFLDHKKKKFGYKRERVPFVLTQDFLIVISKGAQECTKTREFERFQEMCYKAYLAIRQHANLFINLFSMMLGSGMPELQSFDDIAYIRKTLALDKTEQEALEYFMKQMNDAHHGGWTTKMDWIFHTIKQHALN
Source text: as §2

PIK3CA = target: T20, PIK3CA (Homo sapiens, UniProt P42336); test: KINOMEscan at 1 μM, PIK3CA; type: binding; conditions: 1000 nM, read-out: Percent Control
T20 construct: purchased Eurofins DiscoverX KINOMEscan
T20 sequence (P42336 whole entry): as the sequence (P42336 whole entry Q546K) above, with K546Q counted along it
Source text: as §2

LCK = target: T21, LCK (Homo sapiens, UniProt P06239); test: KINOMEscan binding assay at 1 μM, LCK; conditions: Compound Concentration 1000 nM; read-out: Percent Control
T21 construct: purchased Eurofins DiscoverX KINOMEscan
Source text: as §2

PAK3 = target: T22, PAK3 (Homo sapiens, UniProt O75914); test: KINOMEscan binding assay at 1 μM, PAK3; conditions: Compound Concentration 1000 nM; read-out: Percent Control
T22 construct: purchased Eurofins DiscoverX KINOMEscan
Source text: as §2

MAP3K1 = target: T23, MAP3K1 (Homo sapiens, UniProt Q13233); test: KINOMEscan at 1 μM, MAP3K1; type: binding; conditions: 1000 nM, read-out: Percent Control
T23 construct: purchased Eurofins DiscoverX KINOMEscan
Source text: as §2

EGFR(G719S) = target: T24, EGFR(G719S) (Homo sapiens, UniProt P00533, G719S); test: KINOMEscan binding assay at 1 μM, EGFR(G719S); conditions: Compound Concentration 1000 nM; read-out: Percent Control
T24 construct: purchased Eurofins DiscoverX KINOMEscan
Source text: as §2

EPHA7 = target: T25, EPHA7 (Homo sapiens, UniProt Q15375); test: KINOMEscan binding assay at 1 μM, EPHA7; conditions: Compound Concentration 1000 nM; read-out: Percent Control
T25 construct: purchased Eurofins DiscoverX KINOMEscan
T25 sequence (Q15375 28-998): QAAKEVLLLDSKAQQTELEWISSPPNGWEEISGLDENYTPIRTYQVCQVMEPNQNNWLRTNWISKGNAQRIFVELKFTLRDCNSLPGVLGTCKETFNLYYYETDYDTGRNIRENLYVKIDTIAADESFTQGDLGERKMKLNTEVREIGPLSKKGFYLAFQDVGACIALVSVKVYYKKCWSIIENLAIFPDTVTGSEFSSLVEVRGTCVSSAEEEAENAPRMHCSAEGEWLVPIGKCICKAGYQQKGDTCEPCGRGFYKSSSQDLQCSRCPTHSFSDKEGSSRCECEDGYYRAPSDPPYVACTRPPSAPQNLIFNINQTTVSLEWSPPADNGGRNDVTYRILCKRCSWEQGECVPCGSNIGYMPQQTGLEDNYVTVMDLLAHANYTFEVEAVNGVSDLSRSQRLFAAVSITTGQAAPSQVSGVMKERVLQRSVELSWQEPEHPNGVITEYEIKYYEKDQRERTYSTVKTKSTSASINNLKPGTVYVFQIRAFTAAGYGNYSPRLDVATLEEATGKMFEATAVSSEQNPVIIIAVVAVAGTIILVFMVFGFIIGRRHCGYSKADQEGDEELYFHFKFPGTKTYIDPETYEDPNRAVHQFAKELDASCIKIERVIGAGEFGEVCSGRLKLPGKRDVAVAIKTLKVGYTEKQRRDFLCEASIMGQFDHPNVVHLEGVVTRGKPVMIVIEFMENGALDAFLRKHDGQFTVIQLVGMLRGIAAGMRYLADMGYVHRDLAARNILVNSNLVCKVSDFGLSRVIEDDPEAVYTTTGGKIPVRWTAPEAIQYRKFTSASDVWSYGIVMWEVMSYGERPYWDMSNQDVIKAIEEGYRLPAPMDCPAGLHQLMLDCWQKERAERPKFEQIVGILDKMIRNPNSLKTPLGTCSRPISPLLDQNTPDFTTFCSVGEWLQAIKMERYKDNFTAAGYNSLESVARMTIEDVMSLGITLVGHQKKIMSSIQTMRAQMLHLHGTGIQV
Source text: as §2

STK36 = target: T26, STK36 (Homo sapiens, UniProt Q9NRP7); test: KINOMEscan at 1 μM, STK36; type: binding; conditions: 1000 nM, read-out: Percent Control
T26 construct: purchased Eurofins DiscoverX KINOMEscan
Source text: as §2

TBK1 = target: T27, TBK1 (Homo sapiens, UniProt Q9UHD2); test: KINOMEscan at 1 μM, TBK1; type: binding; conditions: 1000 nM, read-out: Percent Control
T27 construct: purchased Eurofins DiscoverX KINOMEscan
Source text: as §2

PRKD3 = target: T28, PRKD3 (Homo sapiens, UniProt O94806); test: KINOMEscan at 1 μM, PRKD3; type: binding; conditions: 1000 nM, read-out: Percent Control
T28 construct: purchased Eurofins DiscoverX KINOMEscan
Source text: as §2

[1] = target: T29, RSK2(Kin.Dom.1-N-terminal) (Homo sapiens, UniProt P51812); test: KINOMEscan at 1 μM, RSK2(Kin.Dom.1-N-terminal); type: binding; conditions: 1000 nM, read-out: Percent Control
T29 construct: RSK2(Kin.Dom.1-N-terminal); purchased Eurofins DiscoverX KINOMEscan
Source text: as §2

PRKCI = target: T30, PRKCI (Homo sapiens, UniProt P41743); test: KINOMEscan at 1 μM, PRKCI; type: binding; conditions: 1000 nM, read-out: Percent Control
T30 construct: purchased Eurofins DiscoverX KINOMEscan
T30 sequence (P41743 whole entry): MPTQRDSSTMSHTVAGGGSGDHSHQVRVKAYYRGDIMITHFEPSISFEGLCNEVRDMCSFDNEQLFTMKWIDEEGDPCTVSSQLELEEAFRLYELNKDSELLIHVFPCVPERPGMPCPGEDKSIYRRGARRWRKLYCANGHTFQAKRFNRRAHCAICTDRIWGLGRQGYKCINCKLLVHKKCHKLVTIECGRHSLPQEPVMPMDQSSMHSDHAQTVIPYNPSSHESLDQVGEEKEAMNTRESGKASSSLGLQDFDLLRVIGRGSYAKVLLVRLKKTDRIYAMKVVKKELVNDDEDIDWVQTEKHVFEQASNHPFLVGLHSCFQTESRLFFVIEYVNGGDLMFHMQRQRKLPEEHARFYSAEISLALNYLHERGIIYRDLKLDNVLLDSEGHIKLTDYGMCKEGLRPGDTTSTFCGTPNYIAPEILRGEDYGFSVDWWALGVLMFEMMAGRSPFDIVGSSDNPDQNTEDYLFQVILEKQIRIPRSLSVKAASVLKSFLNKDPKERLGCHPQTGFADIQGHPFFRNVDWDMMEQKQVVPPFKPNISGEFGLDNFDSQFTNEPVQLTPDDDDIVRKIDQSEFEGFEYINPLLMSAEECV
Source text: as §2

[2] = target: T31, RSK3(Kin.Dom.1-N-terminal) (Homo sapiens, UniProt Q15349); test: KINOMEscan binding assay at 1 μM, RSK3(Kin.Dom.1-N-terminal); conditions: Compound Concentration 1000 nM; read-out: Percent Control
T31 construct: RSK3(Kin.Dom.1-N-terminal); purchased Eurofins DiscoverX KINOMEscan
Source text: as §2

FLT3(ITD,D835V) = test: KINOMEscan binding assay at 1 μM, FLT3(ITD,D835V); set-up: species or system human; conditions: Compound Concentration 1000 nM
Source text: as §2

EPHA2 = target: T32, EPHA2 (Homo sapiens, UniProt P29317); test: KINOMEscan at 1 μM, EPHA2; type: binding; conditions: 1000 nM, read-out: Percent Control
T32 construct: purchased Eurofins DiscoverX KINOMEscan
Source text: as §2

CAMK4 = target: T33, CAMK4 (Homo sapiens, UniProt Q16566); test: KINOMEscan at 1 μM, CAMK4; type: binding; conditions: 1000 nM, read-out: Percent Control
T33 construct: purchased Eurofins DiscoverX KINOMEscan
Source text: as §2

Structure (SMILES): Cc1cccc(-c2cnc3occ(-c4ccc(C(=O)O)c(C5CCCC5)c4)c3c2)c1 [SGC-CAMKK2-1 (YL-36)]
- remaining binding at 1 µM (ACVRL1): 100%
- remaining binding at 1 µM (MAP3K15): 84%
- remaining binding at 1 µM (MST4): 100%
- remaining binding at 1 µM (PFTK1): 100%
- remaining binding at 1 µM (ERK2): 81%
- remaining binding at 1 µM (MET(Y1235D)): 98%
- remaining binding at 1 µM (CDK4-cyclinD3): 100%
- remaining binding at 1 µM (CLK4): 100%
- remaining binding at 1 µM (TLK2): 100%
- remaining binding at 1 µM (CAMK2A): 95%
- remaining binding at 1 µM (PHKG2): 100%
- remaining binding at 1 µM (IKK-beta): 100%

Structure (SMILES): O=C(O)c1ccc(-c2coc3ncc(-c4ccccc4)cc23)cc1Cl [SGC-CAMKK2-1N (UNC-YL-83)]
- remaining binding at 1 µM (PLK3): 91%
- remaining binding at 1 µM (PRKD1): 100%
- remaining binding at 1 µM (NEK7): 78%
- remaining binding at 1 µM (PRKR): 90%
- remaining binding at 1 µM (BRSK1): 92%
- remaining binding at 1 µM (CIT): 87%
- remaining binding at 1 µM (PIK3CA(Q546K)): 73%
- remaining binding at 1 µM (PIK3CA): 74%
- remaining binding at 1 µM (LCK): 100%
- remaining binding at 1 µM (PAK3): 100%
- remaining binding at 1 µM (MAP3K1): 74%
- remaining binding at 1 µM (EGFR(G719S)): 100%
- remaining binding at 1 µM (EPHA7): 100%
- remaining binding at 1 µM (STK36): 75%
- remaining binding at 1 µM (TBK1): 64%
- remaining binding at 1 µM (PRKD3): 93%
- remaining binding at 1 µM [1]: 88%
- remaining binding at 1 µM (PRKCI): 79%
- remaining binding at 1 µM [2]: 100%
- Percent Control (FLT3(ITD,D835V)): 100%
- remaining binding at 1 µM (EPHA2): 76%
- remaining binding at 1 µM (CAMK4): 100%
